Assay results: ChEMBL document CHEMBL1147799, “An integrated in silico 3D model-driven discovery of a novel, potent, and selective amidosulfonamide 5-HT1A agonist (PRX-00023) for the treatment of anxiety and depression” (J Med Chem, 2006)

Tests used:
[1] = target: T1, 5-hydroxytryptamine receptor 1A (Homo sapiens, UniProt P08908); assay: Displacement of [3H]8-OH-DPAT from human 5HT1A receptor in HEK293 cells
T1 sequence (P08908 whole entry): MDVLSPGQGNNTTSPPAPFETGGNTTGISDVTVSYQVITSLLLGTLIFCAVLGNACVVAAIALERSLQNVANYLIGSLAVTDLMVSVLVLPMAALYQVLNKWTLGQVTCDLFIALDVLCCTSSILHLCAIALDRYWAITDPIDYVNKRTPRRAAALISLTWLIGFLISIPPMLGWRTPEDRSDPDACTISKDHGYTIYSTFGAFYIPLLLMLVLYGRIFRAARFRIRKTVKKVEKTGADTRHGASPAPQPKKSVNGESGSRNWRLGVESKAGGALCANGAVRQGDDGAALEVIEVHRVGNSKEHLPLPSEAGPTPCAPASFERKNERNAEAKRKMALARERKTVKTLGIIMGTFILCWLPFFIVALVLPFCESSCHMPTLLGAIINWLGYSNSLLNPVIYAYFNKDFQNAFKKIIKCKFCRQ

[2] = target: T2, Adrenergic receptor alpha-1 (Rattus norvegicus, UniProt P15823+P23944+P43140); assay: Displacement of [3H]prazosin from adrenergic alpha-1 receptor in rat cerebral cortex cells; type: cell-based
T2 sequence (P15823 whole entry): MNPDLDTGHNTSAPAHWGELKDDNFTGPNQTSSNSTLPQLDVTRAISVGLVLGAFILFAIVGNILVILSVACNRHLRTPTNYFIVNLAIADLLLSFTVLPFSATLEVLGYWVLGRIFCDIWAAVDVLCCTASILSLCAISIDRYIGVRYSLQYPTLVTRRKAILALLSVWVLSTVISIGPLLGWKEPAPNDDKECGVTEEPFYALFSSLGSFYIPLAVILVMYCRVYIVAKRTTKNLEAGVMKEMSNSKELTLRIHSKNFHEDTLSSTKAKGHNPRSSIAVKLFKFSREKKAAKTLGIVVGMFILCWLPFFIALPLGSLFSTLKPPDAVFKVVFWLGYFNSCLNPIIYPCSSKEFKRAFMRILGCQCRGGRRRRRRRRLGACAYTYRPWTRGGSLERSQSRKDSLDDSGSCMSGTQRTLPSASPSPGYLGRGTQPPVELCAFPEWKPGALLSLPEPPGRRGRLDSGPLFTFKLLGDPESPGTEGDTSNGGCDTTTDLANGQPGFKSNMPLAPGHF
T2 sequence (P23944 whole entry): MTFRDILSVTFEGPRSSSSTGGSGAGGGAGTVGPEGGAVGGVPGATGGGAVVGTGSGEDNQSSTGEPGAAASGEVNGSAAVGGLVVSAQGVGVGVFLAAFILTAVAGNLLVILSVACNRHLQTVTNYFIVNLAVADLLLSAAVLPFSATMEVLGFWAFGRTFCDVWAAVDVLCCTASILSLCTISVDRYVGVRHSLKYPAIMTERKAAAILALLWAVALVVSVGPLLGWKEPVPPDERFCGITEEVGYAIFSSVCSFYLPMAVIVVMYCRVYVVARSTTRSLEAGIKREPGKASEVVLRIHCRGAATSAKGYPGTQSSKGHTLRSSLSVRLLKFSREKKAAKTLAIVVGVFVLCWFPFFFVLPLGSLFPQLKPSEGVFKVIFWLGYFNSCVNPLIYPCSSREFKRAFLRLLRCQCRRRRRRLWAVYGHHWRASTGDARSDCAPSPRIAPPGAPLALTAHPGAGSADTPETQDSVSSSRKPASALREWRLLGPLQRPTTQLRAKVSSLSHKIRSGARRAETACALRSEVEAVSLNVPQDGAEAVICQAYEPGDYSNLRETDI
T2 sequence (P43140 whole entry): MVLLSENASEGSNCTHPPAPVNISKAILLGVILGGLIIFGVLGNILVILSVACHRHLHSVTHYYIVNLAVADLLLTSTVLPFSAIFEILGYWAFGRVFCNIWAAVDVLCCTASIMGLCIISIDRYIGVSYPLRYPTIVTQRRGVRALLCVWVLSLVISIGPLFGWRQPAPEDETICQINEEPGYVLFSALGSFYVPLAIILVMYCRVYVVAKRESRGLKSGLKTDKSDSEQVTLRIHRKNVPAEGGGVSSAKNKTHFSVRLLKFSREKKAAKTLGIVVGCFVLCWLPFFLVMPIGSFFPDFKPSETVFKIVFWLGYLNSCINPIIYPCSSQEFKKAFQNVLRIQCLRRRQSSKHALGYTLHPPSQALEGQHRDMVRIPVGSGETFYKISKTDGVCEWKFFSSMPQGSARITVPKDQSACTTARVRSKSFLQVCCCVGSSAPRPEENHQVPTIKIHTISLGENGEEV

[3] = target: 5-hydroxytryptamine receptor 7 (Homo sapiens, UniProt P34969)
Sequence of 5-hydroxytryptamine receptor 7 (P34969 whole entry): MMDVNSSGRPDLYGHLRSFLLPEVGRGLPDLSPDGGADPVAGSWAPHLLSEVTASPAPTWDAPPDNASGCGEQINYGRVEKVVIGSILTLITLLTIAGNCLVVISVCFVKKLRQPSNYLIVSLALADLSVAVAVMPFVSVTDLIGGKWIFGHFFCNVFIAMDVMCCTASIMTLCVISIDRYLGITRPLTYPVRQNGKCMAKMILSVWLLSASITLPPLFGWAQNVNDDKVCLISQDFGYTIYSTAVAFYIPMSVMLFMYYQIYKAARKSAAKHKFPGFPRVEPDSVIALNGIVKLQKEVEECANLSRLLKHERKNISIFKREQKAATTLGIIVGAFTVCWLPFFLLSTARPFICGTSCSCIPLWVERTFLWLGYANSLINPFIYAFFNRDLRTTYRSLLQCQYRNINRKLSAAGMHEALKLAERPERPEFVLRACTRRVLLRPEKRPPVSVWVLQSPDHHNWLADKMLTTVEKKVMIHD
Description: Binding affinity to 5HT7 receptor by radioligand binding assay

[4] = Oral bioavailability in Sprague-Dawley rat at 3 mg/kg, po and 1 mg/kg, iv; type: ADME, organism-based; conditions: in vivo
[5] = Half life in Sprague-Dawley rat at 3 mg/kg, po; type: ADME, organism-based; set-up: dose 3 mg/kg, route oral; conditions: in vivo
[6] = target: Sodium-dependent serotonin transporter (Homo sapiens, UniProt P31645); assay: Binding affinity to 5HT transporter by radioligand binding assay
Sequence of Sodium-dependent serotonin transporter (P31645 whole entry): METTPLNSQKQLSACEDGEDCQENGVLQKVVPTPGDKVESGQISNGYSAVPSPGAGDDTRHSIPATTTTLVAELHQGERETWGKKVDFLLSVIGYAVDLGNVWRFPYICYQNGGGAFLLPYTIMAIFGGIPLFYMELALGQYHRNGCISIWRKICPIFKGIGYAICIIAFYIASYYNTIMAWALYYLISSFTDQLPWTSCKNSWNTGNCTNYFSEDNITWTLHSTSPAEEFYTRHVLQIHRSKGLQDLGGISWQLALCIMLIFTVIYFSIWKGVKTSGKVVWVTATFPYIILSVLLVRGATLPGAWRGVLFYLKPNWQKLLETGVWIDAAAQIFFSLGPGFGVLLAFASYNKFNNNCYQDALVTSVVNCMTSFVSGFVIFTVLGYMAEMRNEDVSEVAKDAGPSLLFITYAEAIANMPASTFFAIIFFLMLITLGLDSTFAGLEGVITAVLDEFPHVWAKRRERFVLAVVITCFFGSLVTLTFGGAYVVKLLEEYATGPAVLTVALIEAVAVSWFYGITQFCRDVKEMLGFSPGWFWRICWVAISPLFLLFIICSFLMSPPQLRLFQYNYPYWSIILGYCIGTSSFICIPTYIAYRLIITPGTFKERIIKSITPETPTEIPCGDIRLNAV

[7] = target: 5-hydroxytryptamine receptor 2A (Homo sapiens, UniProt P28223)
Sequence of 5-hydroxytryptamine receptor 2A (P28223 whole entry): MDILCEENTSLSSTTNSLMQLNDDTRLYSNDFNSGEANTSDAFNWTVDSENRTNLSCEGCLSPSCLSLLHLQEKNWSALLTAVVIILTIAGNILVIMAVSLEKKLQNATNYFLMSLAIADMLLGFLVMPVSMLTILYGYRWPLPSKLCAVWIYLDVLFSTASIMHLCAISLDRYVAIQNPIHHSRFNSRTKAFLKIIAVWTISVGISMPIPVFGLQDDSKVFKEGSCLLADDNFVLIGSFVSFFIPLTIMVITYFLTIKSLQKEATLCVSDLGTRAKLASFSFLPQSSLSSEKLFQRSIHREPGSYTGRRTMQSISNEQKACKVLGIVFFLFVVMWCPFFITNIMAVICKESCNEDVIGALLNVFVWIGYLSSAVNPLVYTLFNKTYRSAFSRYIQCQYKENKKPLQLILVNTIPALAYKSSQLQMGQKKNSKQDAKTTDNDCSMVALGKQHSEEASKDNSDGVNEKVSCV
Description: Binding affinity to 5HT2A receptor by radioligand binding assay

[8] = target: T3, 5-hydroxytryptamine receptor 1A (Homo sapiens) (UniProt P08908); assay: Activity against 5HT1A receptor relative to 5-HT by Gi-[35S]GTP-gamma-S binding assay; type: functional
T3 sequence (whole entry): T1 sequence (P08908 whole entry)

[9] = target: 5-hydroxytryptamine receptor 2B (Homo sapiens, UniProt P41595); assay: Binding affinity to 5HT2B receptor by radioligand binding assay
Sequence of 5-hydroxytryptamine receptor 2B (P41595 whole entry): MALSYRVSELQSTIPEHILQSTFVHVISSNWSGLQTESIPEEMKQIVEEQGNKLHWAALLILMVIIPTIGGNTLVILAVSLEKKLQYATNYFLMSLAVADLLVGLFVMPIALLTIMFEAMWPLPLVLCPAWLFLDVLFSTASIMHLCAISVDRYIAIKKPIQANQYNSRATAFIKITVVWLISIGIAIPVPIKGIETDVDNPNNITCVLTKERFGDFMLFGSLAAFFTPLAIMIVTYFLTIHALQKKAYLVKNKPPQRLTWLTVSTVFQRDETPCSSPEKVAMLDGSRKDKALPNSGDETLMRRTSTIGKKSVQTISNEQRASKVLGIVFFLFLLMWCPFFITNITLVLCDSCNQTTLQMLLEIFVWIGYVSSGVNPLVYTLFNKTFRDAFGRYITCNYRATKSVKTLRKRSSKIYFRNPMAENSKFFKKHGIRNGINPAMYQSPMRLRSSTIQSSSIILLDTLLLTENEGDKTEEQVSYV

[10] = target: T1, 5-hydroxytryptamine receptor 1A; assay: Activity against 5HT1A receptor by Gi-[35S]GTP-gamma-S binding assay; type: functional
[11] = target: Alpha-2A adrenergic receptor (Rattus norvegicus, UniProt P22909); assay: Displacement of [3H]RX 821002 from Adrenergic alpha-2a receptor in rat cerebral cortex cells; type: cell-based
Sequence of Alpha-2A adrenergic receptor (P22909 whole entry): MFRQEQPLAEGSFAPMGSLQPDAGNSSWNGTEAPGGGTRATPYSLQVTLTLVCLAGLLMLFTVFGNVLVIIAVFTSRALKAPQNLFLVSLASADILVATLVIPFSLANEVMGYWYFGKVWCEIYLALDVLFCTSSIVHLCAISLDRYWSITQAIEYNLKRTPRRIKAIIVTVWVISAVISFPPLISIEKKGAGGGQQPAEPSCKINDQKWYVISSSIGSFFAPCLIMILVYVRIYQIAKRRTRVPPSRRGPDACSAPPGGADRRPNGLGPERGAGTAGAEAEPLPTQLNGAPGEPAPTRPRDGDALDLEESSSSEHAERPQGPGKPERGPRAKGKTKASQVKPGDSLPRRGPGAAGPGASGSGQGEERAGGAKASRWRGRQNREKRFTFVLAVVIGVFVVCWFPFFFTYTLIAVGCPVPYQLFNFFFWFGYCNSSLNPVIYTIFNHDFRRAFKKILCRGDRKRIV

COc1ccccc1N1CCN(CCCCNS(=O)(=O)c2ccc(C)cc2)CC1
Ki [1]: 0.001 µM | Ki [2]: 0.006 µM | Ki [3]: 0.03 µM | bioavailability [4]: 2% | half-life [5]: 1 h | Ki [6]: 0.2 µM | Ki [7]: 0.49 µM | Activity [8]: 65% | Ki [9]: 0.053 µM | EC50 [10]: 0.021 µM | Ki [11]: 0.012 µM
